# Data published in US20230407245A1, “Media and methods for establishing and maintaining early embryo-like cells” (BGI SHENZHEN GROUP HOLDINGS CO., LIMITED, priority 2020, published 2023).
# Test system: primed human PSCs
# Assay: Conversion of primed human PSCs to ICLCs, RT-qPCR of preimplantation ICM markers
# Type: cell-based
# Settings: for expression of preimplantation ICM markers (RT-qPCR) in ICLCs with a different dosage of one component, compared to primed human PSCs: H9, 4CL medium 1 with PD0325901 0.5 μM, TSA 20 nM, DZNep 5, 20 or 50 nM
# Method: All provided human PSCs were routinely maintained on Matrigel™ or Geltrex™ coated plates in mTeSR1 or E8 medium. Generally, cells were passaged every 4 to 5 days with 0.5 mM EDTA. For passaging, cells were washed with PBS once and treated with 0.5 mM EDTA for 5 mins. Then, EDTA was removed and cells were detached as small clumps using a Pasteur pipette with mTeSR1 or E8 medium. Primed human PSCs were grown in an incubator under normoxic conditions (37° C., 5% CO2).
# One day before initiation of conversion, primed human PSCs were washed with PBS once and dissociated into single cells and plated at a density of 1,000 to 1,500 cells/cm 2 on feeder in mTeSR1 or E8 medium supplemented with 10 μM Y27632. Twenty-four hours later, culture medium was switched to 4CL medium 1. The culture medium was refreshed with the same medium every 24 hours. Colonies became round and domed-shape in 24 to 48 hours. Cells were passaged every 3 to 4 days. For passaging, cells were dissociated into single cells using TrypLE: 0.5 mM EDTA (1:1) and plated at a density of 1,000 to 1,500 cells/cm 2 on feeder (feeders were seeded on Geltrex™/Matrigel™ pre-treated plate) (FIG. 1). The ICLCs induction and maintenance can be conducted under hypoxic condition (37° C., 5% CO2, 5% O2), or normoxic condition (37° C., 5% CO2, 21% O2) (FIG. 34), preferably hypoxia condition.
# Using the same procedures of example 1, except plating cells on 1% (v/v) Geltrex™ in DMEM-F12 (cat #) coated plates instead of on feeder cells.
# Primed human PSCs were cultured following the same procedures of example 1. One day before initiation of the conversion, primed human PSCs were dissociated into single cells and plated 60,000 cells/well in Aggrewell™ 800 plates using mTeSR1 or E8 medium supplemented with 10 μM Y27632. Twenty-four hours later, culture medium was changed into 4CL medium 1, culture condition was then switched to hypoxic condition. Cells formed small spheres in 3 days. The spheres were then lifted and transferred to flasks (Greiner Bio-One, 658190) for suspension culture. Medium was refreshed daily. Cells were passaged every 4 to 5 days. For passaging, cells were dissociated into single cells using TrypLE: 0.5 mM EDTA (1:1), then cells were resuspended in 4CL medium 1 at a density of 150,000 cells/ml. The resuspended cells were added into flasks (Greiner Bio-One, 658190) for suspension culture. Cells formed small aggregates in 24 hours. Generally, cells were converted to ICLCs in approximately 3 weeks after initiation.
# Same as example 1, but different dosages of either PD0325901, DZNep, or TSA were also used: PD0325901, 0.5 μM; TSA, 20 nM; DZNep, 5 nM, 20 nM or 50 nM.
smiles,measurement,setting,value
"Nc1nccc2c1ncn2[C@@H]1C=C(CO)[C@@H](O)[C@H]1O [DZNep, 3-deazaneplanocin A]","expression of preimplantation ICM markers (RT-qPCR) in ICLCs with a different dosage of one component, compared to primed human PSCs",,significantly induced
O=C1O[C@H]([C@@H](O)CO)C(O)=C1O [L-ascorbic acid],"expression levels of ICM specific genes such as DNMT3L, STELLA, DPPA5, KLF17",final concentration of 40 to 70 ng/mL,potently increases
O=C(NOC[C@H](O)CO)c1ccc(F)c(F)c1Nc1ccc(I)cc1F [PD0325901],"expression of preimplantation ICM markers (RT-qPCR) in ICLCs with a different dosage of one component, compared to primed human PSCs",,significantly induced
"CC(/C=C/C(=O)NO)=C\[C@@H](C)C(=O)c1ccc(N(C)C)cc1 [TSA, trichostatin A]","expression of preimplantation ICM markers (RT-qPCR) in ICLCs with a different dosage of one component, compared to primed human PSCs",,significantly induced
